Experimental data from US6537567B1, “Tissue-engineered tubular construct having circumferentially oriented smooth muscle cells” (Massachusetts Institute of Technology, priority 1997, dated 2003).

Tests used:
Segments of neo-artery = experiment: Pharmacologic reactivity of vessel segments in myographs; assay type: cell-based; settings: for constriction response of vessel segment: prostaglandin F2α 10^−5 to 10^−4 M, serotonin 10^−6 to 10^−5 M, endothelin-1 10^−7, resting tension four grams
Protocol: Segments of neo-artery three mm in length were assessed for reactivity to pharmacologic agents using techniques previously reported. Briefly, segments were placed in physiological saline bubbled with 95% O2 and 5% CO2, and mounted on tungsten wires in conventional myographs connected to a pen recorder. Freshly excised segments of rabbit abdominal aorta were used as controls. Vessels were maintained at a resting tension of four grams for 30 minutes prior to testing. Vessels were exposed to indomethacin 10^−5 M, LNNA 10^−4 M, norepinephrine 10^−6 M, prostaglandin F2α10^−5 to 10^−4 M, papavarine 10^−6 to 10^−5 M, serotonin 10^−6 to 10^−5 M, endothelin-1 10^−7 and potassium 30-60 mM. […] In some experiments, the magnitude of the constriction response was augmented by prior exposure to indomethacin.

smooth muscle cells = experiment: Growth of smooth muscle cells under externally applied physical forces; assay type: cell-based; settings: response to externally applied physical forces such as pulsatile force
Protocol: For use in the methods of the present invention, several variations on standard cell growth media have been developed. […] In addition, for growing any cells which normally produce a substantial collagenous extracellular matrix, an “enhanced cell growth medium” has been developed which comprises standard cell growth medium, as described above, supplemented with 1-10 mM, preferably 5 mM, HEPES buffer; 0.01-0.1 g/L, preferably 0.02-0.06 g/L, Vitamin C; 0.01-0.1 g/L, preferably 0.02-0.06 g/L, proline; 0.01-0.1 g/L, preferably 0.02-0.06 g/L, glycine; 0.01-0.1 g/L, preferably 0.02-0.06 g/L, alanine; and 0.5-5.0 μg/L, preferably 1.0-3.0 μg/L, of a copper salt (e.g., CuSO4). Because Vitamin C has a half-life of only 6-8 hours at 37° C. in culture medium, Vitamin C is preferably replenished daily to enhance collagen synthesis by the cells. In addition, proline, glycine, and alanine are provided in excess to provide adequate amounts of these amino acids for the synthesis of collagen and other extracellular matrix proteins such as elastin. Copper ions are a necessary co-factor for elastin synthesis and, therefore, a source of copper ions (e.g., CuSO4) is preferably included in media used to grow elastin-rich tissues. For the growth of endothelial cells, it is preferred that CS be used rather than FBS. […]

smooth muscle cell = settings: cited from earlier work
aortic endothelial cell = settings: cited from earlier work

Row | Molecule | constriction response of vessel segment (Segments of neo-artery) | effect on smooth muscle cell proliferation (smooth muscle cell) | also measured
1 | COc1ccc2c(c1)c(CC(=O)O)c(C)n2C(=O)c1ccc(Cl)cc1 [indomethacin] | – | – | effect of prior exposure on magnitude of the constriction response (Segments of neo-artery; indomethacin 10^−5 M, in some experiments): augmented
2 | COc1ccc(Cc2nccc3cc(OC)c(OC)cc23)cc1OC [papavarine] | – | – | relaxation response of vessel segment (Segments of neo-artery; papavarine 10^−6 to 10^−5 M): relaxation
3 | NCCc1c[nH]c2ccc(O)cc12 [serotonin] | reproducible constriction | – | –
4 | [H]/N=C(/N)N[C@H]1[C@H](O)[C@@H](O)[C@H](O[C@@H]2O[C@@H](C)[C@](O)(C=O)[C@H]2O[C@@H]2O[C@@H](CO)[C@H](O)[C@@H](O)[C@@H]2NC)[C@@H](N/C(N)=N\[H])[C@@H]1O [streptomycin] | – | – | effect on development of the desired smooth muscle phenotype (smooth muscle cells): tends to inhibit the development of the desired phenotype
5 | PDGF | – | stimulate smooth muscle cell proliferation | –
6 | VEGF | – | – | effect on aortic endothelial cell growth (aortic endothelial cell): stimulate aortic endothelial cell growth
7 | aFGF: acidic fibroblast growth factor | – | stimulate smooth muscle cell proliferation | –
8 | bFGF: basic fibroblast growth factor | – | stimulate smooth muscle cell proliferation | effect on aortic endothelial cell growth (aortic endothelial cell): stimulate aortic endothelial cell growth
9 | endothelin-1 (CSCSSLMDKECVYFCHLDIIW; Endothelin-1; UniProt P05305 53-73, looked up) | reproducible constriction | – | –
10 | prostaglandin F2α | reproducible constriction | – | –
